Source: patent US20230272016A1, “PEPTIDES FOR IMMUNOTHERAPY” (Second Genome, Inc., priority 2020, published 2023)

System: human T cells
Assay: Human T cell activation assay (anti-CD3 plus peptide, cytokine secretion)
Assay type: cell-based
Description: FIGS. 11 and 12 show 150 peptide variants of the SG-3-0020 1-29 aa N-terminal+middle region, derived from a combinatorial phage display library, were tested for activation potential of human T cells. […] Increase in cytokine secretion was concordant in 3 donors.
For example, PBMCs were obtained from individual human donors.
T-cell activation was also determined as described previously (see above and International Application No. PCT/US2020/012431). […] Separate N-, MID, and C-terminal fragments lose activity. The data support that both N- and middle region are minimally required for binding and activation to T cells.

[1] = Table 11, 150 combinatorial library variants of SEQ ID NO:1
[2] = Table 10, combinatorial library variants of SEQ ID NO:1

| Sequence | mean_ES_IFN-γ [1] | mean_ES_IFN-γ [2] |
| --- | --- | --- |
| VLSTAKGKTHDHYPGGRMRPPPWHDWRAR [SEQ ID NO: 257] | 0.918 | – |
| VPSAAKGKWHDHNGSGRMRDPGWHDWRFS [SEQ ID NO: 348] | −0.009349 | – |
| VPSAAKGKWHDHNPGGRHRPPPWHDWRAS [SEQ ID NO: 291] | 0.7119 | – |
| VSSAAKGKTHDHNPSGRMRPPPWHDWRFS [SEQ ID NO: 322] | 0.4538 | – |
| VSSAAKGKTHDHYPSGRMRPPPWHDWRGR [SEQ ID NO: 283] | 0.7475 | – |
| VSSGAKGKTHDHYPSGRMRPPPWHDWRFS [SEQ ID NO: 297] | 0.6662 | – |
| VSSGAKTKTHDHNPSGRMRDFKWHDWRGS [SEQ ID NO: 350] | −0.1153 | – |
| VTSAAKGKTHDHYPSGRMRPPPWHDWRFS [SEQ ID NO: 312] | 0.5616 | – |
| VTSAAKGKTHDHYPSGRYRPPPWHDWRGR [SEQ ID NO: 310] | 0.5718 | – |
| VTSAAKGKWHDHWPSGRYRDPPWHDWRVS [SEQ ID NO: 308] | 0.588 | – |
| VTSAAKTKWHDHNGSGRYRDPGWHDWRGS [SEQ ID NO: 347] | 0.01499 | – |
| VTSTAKGKTHDHNWSGRYRPPPWHDWRAR [SEQ ID NO: 9] | 1.28 | 1.28 |
| VVSGAKGKTHDHNWGGRYRPPPWHDWRGS [SEQ ID NO: 296] | 0.6729 | – |
| VVSTAKGKTHDHYPGGRMRPPPWHDWRAR [SEQ ID NO: 251] | 0.952 | – |
| VVSTAKGKTHDHYWSGRYRPPPWHDWRAR [SEQ ID NO: 259] | 0.9101 | – |
| WASAAKGKTHDHYGGGRMRPPPWHDWRAR [SEQ ID NO: 323] | 0.4505 | – |
| WASGAKGKTHDHNPSGRWRDPGWHDWRGS [SEQ ID NO: 330] | 0.3705 | – |
| WASGAKGKTHDHWPGGRHRDPPWHDWRVS [SEQ ID NO: 271] | 0.8431 | – |
| WASGAKGKTHDHYPSGRMRPPPWHDWRWS [SEQ ID NO: 278] | 0.7784 | – |
| WASGAKGKWHDHYGGGRYRDPGWHDWRGS [SEQ ID NO: 20] | 1.135 | 1.135 |

| Sequence | mean_ES_IFN-γ [1] | mean_ES_IFN-γ [2] |
| --- | --- | --- |
| WASGAKGKWHDHYGSGRYRPPPWHDWRGS [SEQ ID NO: 290] | 0.712 | – |
| WGSAAKGKTHDHNWSGRYRPPPWHDWRVS [SEQ ID NO: 302] | 0.6264 | – |
| WGSAAKGKTHDHWPSGRHRDPPWHDWRVR [SEQ ID NO: 31] | 1.044 | 1.044 |
| WGSAAKGKTHDHWPSGRMRDPPWHDWRVS [SEQ ID NO: 256] | 0.9254 | – |
| WGSAAKGKTHDHWPSGRYRDPKWHDWRVS [SEQ ID NO: 21] | 1.134 | 1.134 |
| WGSAAKGKTHDHYGSGRYRDPPWHDWRAR [SEQ ID NO: 32] | 1.038 | 1.038 |
| WGSAAKGKWHDHYPSGRMRPPPWHDWRVR [SEQ ID NO: 275] | 0.8178 | – |
| WGSGAKGKTHDHNGGGRMRPPPWHDWRAS [SEQ ID NO: 334] | 0.3217 | – |
| WGSGAKGKTHDHWGSGRWRDPGWHDWRGS [SEQ ID NO: 5] | 1.324 | 1.324 |
| WGSGAKTKWHDHNWSGRMRPPPWHDWRFS [SEQ ID NO: 354] | −0.315 | – |
| WLSAAKAKTHDHWGSGRHRPPPWHDWRGS [SEQ ID NO: 315] | 0.5302 | – |
| WLSAAKGKTHDHWGSGRWRDPPWHDWRFS [SEQ ID NO: 345] | 0.06564 | – |
| WLSTAKGKTHDHNWSGRYRPPPWHDWRVR [SEQ ID NO: 307] | 0.6005 | – |
| WPSAAKGKTHDHNPSGRMRPPPWHDWRFS [SEQ ID NO: 26] | 1.078 | 1.078 |
| WPSAAKGKTHDHYPGGRYRPPPWHDWRVR [SEQ ID NO: 295] | 0.6782 | – |
| WPSGAKGKWHDHYPGGRMRPPPWHDWRFS [SEQ ID NO: 4] | 1.351 | 1.351 |
| WPSGAKTKTHDHNWGGRMRDPPWHDWRGS [SEQ ID NO: 339] | 0.2814 | – |
| WPSTAKGKTHDHYGGGRMRPPPWHDWRAR [SEQ ID NO: 318] | 0.5137 | – |
| WQSAAKTKTHDHWPGGRMRPPPWHDWRAR [SEQ ID NO: 352] | −0.2305 | – |
| WQSAAKTKTHDHWPSGRYRPPPWHDWRAS [SEQ ID NO: 294] | 0.6837 | – |

| Sequence | mean_ES_IFN-γ [1] | mean_ES_IFN-γ [2] |
| --- | --- | --- |
| WSSAAKGKTHDHNPSGRHRPPPWHDWRVS [SEQ ID NO: 304] | 0.6137 | – |
| WSSAAKGKTHDHNWSGRHRPPPWHDWRFS [SEQ ID NO: 250] | 0.9527 | – |
| WSSAAKGKTHDHWGGGRYRPPPWHDWRAS [SEQ ID NO: 17] | 1.172 | 1.172 |
| WSSAAKGKTHDHYGGGRMRPPPWHDWRAR [SEQ ID NO: 338] | 0.2829 | – |
| WSSAAKGKTHDHYGSGRMRDFGWHDWRFS [SEQ ID NO: 274] | 0.8191 | – |
| WSSAAKGKTHDHYPSGRHRPPPWHDWRVS [SEQ ID NO: 253] | 0.9469 | – |
| WSSAAKTKWHDHNPGGRYRPPPWHDWRFR [SEQ ID NO: 332] | 0.3258 | – |
| WSSGAKTKWHDHNGSGRYRPPPWHDWRGS [SEQ ID NO: 286] | 0.7241 | – |
| WSSGAKTKWHDHNPGGRMRDPPWHDWRGS [SEQ ID NO: 335] | 0.3156 | – |
| WSSGAKTKWHDHYGSGRHRDPKWHDWRGS [SEQ ID NO: 19] | 1.147 | 1.147 |
| WSSTAKGKTHDHWPSGRYRPPPWHDWRAR [SEQ ID NO: 35] | 1.009 | 1.009 |
| WSSTAKTKWHDHNGGGRMRPPPWHDWRAR [SEQ ID NO: 305] | 0.612 | – |
| WTSAAKGKTHDHYPSGRYRPPPWHDWRVR [SEQ ID NO: 357] | −1.02 | – |
| WTSAAKGKWHDHNGSGRHRDPPWHDWRAR [SEQ ID NO: 289] | 0.7151 | – |
| WTSAAKTKWHDHYGGGRMRPPPWHDWRAR [SEQ ID NO: 272] | 0.8379 | – |
| WTSGAKGKWHDHNGGGRMRDPGWHDWRFS [SEQ ID NO: 309] | 0.5851 | – |
| WTSGAKGKWHDHYGGGRYRDPGWHDWRFS [SEQ ID NO: 280] | 0.7716 | – |
| WVSAAKGKTHDHNGGGRWRDPGWHDWRFS [SEQ ID NO: 336] | 0.3032 | – |
| WVSAAKGKTHDHWGSGRHRDPPWHDWRAR [SEQ ID NO: 30] | 1.052 | 1.052 |
| WVSAAKGKWHDHYGSGRMRDPPWHDWWGS [SEQ ID NO: 24] | 1.104 | 1.104 |
